Results from patent US10501492B2, “Antibiotic compounds” (priority 2009, dated 2019).

Key:
[1] = Solubility (physical properties)
M. tuberculosis H37Rv = assay: Antimycobacterial activity, Luciferase reporter phage assay; type: cell-based, Mycobacterium tuberculosis; settings: 72 hours
Bacillus cereus (121) = assay: MIC determination, Macro-broth dilution method (NCCLS); type: cell-based
Text: (§1) The in-vitro potency was established by minimum inhibitory concentration (MIC) determinations of the compounds of Formula I(a) and Formula I(b) against bacterial strains, by using the Macro-broth dilution method as per National Committee for Clinical Laboratory Standards (2000) guidelines (Methods for Dilution Antimicrobial Susceptibility Tests for Bacteria that Grow Aerobically—Fifth Edition: Approved Standard M7-A5. NCCLS, Wayne, Pa., USA). Mueller-Hinton broth was used as nutrient medium for the assay, unless stated otherwise. PM181104 (PCT publication no. WO2007119201) was used as known standard in all in-vitro experiments. For preparation of the stock solution the compounds of Formula I(a) and Formula I(b) were dissolved in chloroform (5% of the total required volume) and diluted using methanol (95% of the total required volume).

[2] = test system: Bacillus megaterium FH1127 (124); assay: as above; type: cell-based
Text: as §1

[3] = test system: Bacillus subtilis ATCC 6633 (123); assay: as above; type: cell-based
Text: as §1

S. epidermidis = assay: as above; type: cell-based, Staphylococcus epidermidis
Text: as §1

E. faecium = assay: as above; type: cell-based, Enterococcus faecium; settings: for Minimal Inhibitory Concentration: E. faecium, R-2 (VRE) (Table 5)
Text: as §1

S. aureus = assay: as above; type: cell-based, Staphylococcus aureus
Text: as §1

[4] = in chloroform, ethyl acetate, methanol
[5] = S. aureus 209P (MSSA) (Table 5)
[6] = S. aureus E710, (MRSA) (Table 5)

C=C(NC(=O)C(=C)NC(=O)c1csc(C2=NC3c4csc(n4)C4NC(=O)c5csc(n5)C(C(C)(O)C(C)O)NC(=O)C5CSC(=N5)/C(=C\C)NC(=O)C(C(C)O)NC(=O)c5csc(n5)C3(CC2)NC(=O)C(C)NC(=O)C(=C)NC(=O)C(C)NC(=O)C(C(C)C)NC2C=Cc3c(C(C)O)cc(nc3C2O)C(=O)OC4C)n1)C(N)=O (stereo not shown) [Compound of Formula I(a)]
Solubility [1, 4]: Soluble | Solubility ([1]; in water): insoluble | % reduction in RLU (M. tuberculosis H37Rv; 0.5 μg/mL): 36.36% | % reduction in RLU (M. tuberculosis H37Rv; 5 μg/mL): 77.17% | % reduction in RLU (M. tuberculosis H37Rv; 10 μg/mL): 83.76% | MIC (Bacillus cereus (121)): 0.031 µg/mL | MIC [2]: 0.125 µg/mL | MIC [3]: 0.031 µg/mL | MIC (S. epidermidis; S. epidermidis 823, Teicho^R, 230): 0.25 µg/mL | MIC (S. epidermidis; S. epidermidis 2361 W, 246): 0.25 µg/mL | MIC (S. epidermidis; S. epidermidis 4264 I (1) W, 247): 0.125 µg/mL | MIC (S. epidermidis; S. epidermidis 6098, Erythro^R, 233): >1 µg/mL | MIC (S. epidermidis; S. epidermidis 6729 II W, Erythro^R, 236): 0.125 µg/mL | MIC (S. epidermidis; S. epidermidis Pat 01 IV, 251): 0.25 µg/mL | MIC (E. faecium; E. faecium C1 VRE 26): 0.25 µg/mL | MIC (E. faecium; E. faecium C1 VRE 27): 0.25 µg/mL | MIC (E. faecium; E. faecium C1 VRE 28): 0.125 µg/mL | MIC (E. faecium; E. faecium C1 VRE 31): 0.5 µg/mL | MIC (E. faecium; E. faecium C1 VRE 33): 0.125 µg/mL | MIC (E. faecium; E. faecium C1 VRE 34): 0.25 µg/mL | MIC (E. faecium; E. faecium KEM VRE 1): 0.25 µg/mL | MIC (E. faecium; E. faecium KEM VRE 2): 0.5 µg/mL | MIC (E. faecium; E. faecium KEM VRE 3): 0.25 µg/mL | MIC (E. faecium; E. faecium KEM VRE 4): 0.5 µg/mL | MIC (E. faecium; E. faecium KEM VRE 5): 0.25 µg/mL | MIC (E. faecium; E. faecium R-2 (VRE) (Table 4)): 0.25 µg/mL | Minimal Inhibitory Concentration (E. faecium): 0.125 µg/mL | MIC (E. faecium; Enterococcus faecium, VSE (322)): 0.125 µg/mL | Minimal Inhibitory Concentration (S. aureus; [5]): 0.064 to 0.125 µg/mL | MIC (S. aureus; S. aureus 209 P, MSSA (Table 4)): 0.063 µg/mL | MIC (S. aureus; S. aureus 503, MRSA, 62): >1 µg/mL | MIC (S. aureus; S. aureus 789, MRSA, 64): >1 µg/mL | MIC (S. aureus; S. aureus ATCC 33591, MRSA): 0.125 µg/mL | MIC (S. aureus; S. aureus C1 MRSA 2): 0.25 µg/mL | MIC (S. aureus; S. aureus C1 MRSA 3): 0.25 µg/mL | MIC (S. aureus; S. aureus C1 MRSA 5): 0.25 µg/mL | MIC (S. aureus; S. aureus C1 MRSA 7): 0.125 µg/mL | MIC (S. aureus; S. aureus C1 MRSA 8): 0.25 µg/mL | MIC (S. aureus; S. aureus C1 MRSA 9): 0.25 µg/mL | MIC (S. aureus; S. aureus C1 MRSA 10): 0.25 µg/mL | MIC (S. aureus; S. aureus C1 MRSA 13): 0.25 µg/mL | MIC (S. aureus; S. aureus C1 MRSA 16): 0.25 µg/mL | MIC (S. aureus; S. aureus C1 MRSA 17): 0.125 µg/mL | MIC (S. aureus; S. aureus C1 MRSA 20): 0.125 µg/mL | MIC (S. aureus; S. aureus C1 MRSA 21): 0.125 µg/mL | MIC (S. aureus; S. aureus C1 MRSA 22): 0.25 µg/mL | MIC (S. aureus; S. aureus C1 MRSA 23): 0.016 µg/mL | MIC (S. aureus; S. aureus C1 MRSA 24): 0.25 µg/mL | MIC (S. aureus; S. aureus C1 MRSA 25): 0.15 µg/mL | Minimal Inhibitory Concentration (S. aureus; [6]): 0.125 µg/mL | MIC (S. aureus; S. aureus E710, MRSA (Table 4)): 0.125 µg/mL | MIC (S. aureus; S. aureus E712, MRSA Erythro^R, 59): 0.25 µg/mL | MIC (S. aureus; S. aureus KEM MRSA 1): 0.25 µg/mL | MIC (S. aureus; S. aureus KEM MRSA 2): 0.25 µg/mL | MIC (S. aureus; S. aureus KEM MRSA 3): 0.25 µg/mL | MIC (S. aureus; S. aureus KEM MRSA 4): 0.125 µg/mL | MIC (S. aureus; S. aureus KEM MRSA 5): 0.125 µg/mL | MIC (S. aureus; S. aureus MRSA 3 lilavati): 0.125 µg/mL | MIC (S. aureus; S. aureus Misk MRSA 35): 0.125 µg/mL | MIC (S. aureus; S. aureus Misk MRSA 37): 0.125 µg/mL | MIC (S. aureus; S. aureus Misk MRSA 38): 0.125 µg/mL | MIC (S. aureus; S. aureus SG 511, MRSA, 63): 1 µg/mL

C=C(NC(=O)c1csc(C2=NC3c4csc(n4)C4NC(=O)c5csc(n5)C(C(C)(O)C(C)O)NC(=O)C5CSC(=N5)/C(=C\C)NC(=O)C(C(C)O)NC(=O)c5csc(n5)C3(CC2)NC(=O)C(C)NC(=O)C(=C)NC(=O)C(C)NC(=O)C(C(C)C)NC2C=Cc3c(C(C)O)cc(nc3C2O)C(=O)OC4C)n1)C(=O)NC(C)C(N)=O (stereo not shown) [Compound of Formula I(b)]
Solubility [1, 4]: Soluble | Solubility ([1]; in water): insoluble | % reduction in RLU (M. tuberculosis H37Rv; 0.5 μg/mL): 28.87% | % reduction in RLU (M. tuberculosis H37Rv; 5 μg/mL): 54.83% | % reduction in RLU (M. tuberculosis H37Rv; 10 μg/mL): 76.73% | Minimal Inhibitory Concentration (E. faecium): 2 µg/mL | Minimal Inhibitory Concentration (S. aureus; [5]): 0.25 to 0.5 µg/mL | Minimal Inhibitory Concentration (S. aureus; [6]): 2 µg/mL
